Source: patent US20080033056A1 (Metaproteomics, LLC, priority 2006, published 2008)
Marks after values point to notes of the source that are not given here.

Columns and labels:
[1] = test system: LPS-treated 3T3-L1 adipocytes; assay: Adiponectin secretion in LPS/3T3-L1 adipocytes; format: cell-based, murine; settings: for adiponectin secretion: any dose tested; for % Stimulation of adiponectin secretion (maximum): at the concentration of maximum stimulation, NS = not significantly different from the LPS control
[2] = test system: 3T3-L1 adipocytes; assay: Lipogenesis in 3T3-L1 adipocytes (Oil Red O / BODIPY); format: cell-based, murine; settings: relative to controls
Protocol: Prior to experiments, cells were cultured in DMEM containing 10% FBS-HI added 50 units penicillin/ml and 50 μg streptomycin/ml, and maintained in log phase prior to experimental setup. Cells were grown in a 5% CO2 humidified incubator at 37° C. Components of the pre-confluent medium included (1) 10% FBS/DMEM containing 4.5 g glucose/L; (2) 50 U/ml penicillin; and (3) 50 μg/ml streptomycin. Growth medium was made by adding 50 ml of heat inactivated FBS and 5 ml of penicillin/streptomycin to 500 ml DMEM. This medium was stored at 4° C. Before use, the medium was warmed to 37° C. in a water bath.
3T3-T1 cells were seeded at an initial density of 6×10^4 cells/cm^2 in 24-well plates. For two days, the cells were allowed grow to reach confluence. Following confluence, the cells were forced to differentiate into adipocytes by the addition of differentiation medium; this medium consisted of (1) 10% FBS/DMEM (high glucose); (2) 0.5 mM methylisobutylxanthine; (3) 0.5 μM dexamethasone and (4) 10 μg/ml insulin (MDI medium). After three days, the medium was changed to post-differentiation medium consisting of 10 μg/ml insulin in 10% FBS/DMEM.
AcE was partially dissolved in dimethyl sulfoxide (DMSO) and added to the culture medium to achieve a concentration of 50 μg/ml at Day 0 of differentiation and throughout the maturation phase (Days 6 or 7 (D6/7)). Whenever fresh media were added, fresh test material was also added. DMSO was chosen for its polarity and the fact that it is miscible with the aqueous cell culture media.
Oil Red O Staining—Triglyceride content of D6/D7-differentiated 3T3-L1 cells was estimated with Oil Red O according to the method of Kasturi and Joshi [Kasturi, R. and Joshi, V. C. […] Monolayer cells were washed with PBS (phosphate buffered saline, Mediatech) and fixed with 10% formaldehyde for ten minutes. Fixed cells were stained with an Oil Red O working solution of three parts 0.6% Oil Red O/isopropanol stock solution and two parts water for one hour and the excess stain was washed once with water. The resulting stained oil droplets were extracted from the cells with isopropanol and quantified by spectrophotometric analysis at 540 nm (MEL312e BIO-KINETICS READER, Bio-Tek Instruments, Winooski, Vt.).
Briefly, media were removed and cells were washed once with non-sterile PBS. A stock 1000× BODIPY/DMSO solution was made by dissolving 1 mg BODIPY in 1 ml DMSO (1,000 μg BODIPY/ml). […] After 15 min on an orbital shaker (DS-500, VWR Scientific Products, South Plainfield, N.J.) at ambient temperature, the cells were washed with 100 μl PBS followed by the addition of 100 μl PBS for reading for spectrofluorometric determination of BODIPY incorporation into the cells. […]

[3] = test system: insulin-resistant 3T3-L1 adipocytes; assay: Adiponectin secretion from insulin-resistant 3T3-L1 adipocytes; format: cell-based, murine; settings: 50.0 μg/ml; ratio of Adiponectin Index to IL-6 Index (Table 21)
[4] = test system: LPS-stimulated 3T3-L1 adipocytes; assay: IL-6 secretion in LPS/3T3-L1 adipocytes; format: cell-based, murine; settings: at the concentration of maximum inhibition, 100 ng LPS/ml, D5 3T3-L1; for IL-6 Index: indexed to LPS control
[5] = test system: TNFα-treated 3T3-L1 adipocytes; assay: Adiponectin secretion from TNFα-treated 3T3-L1 adipocytes; format: cell-based, murine; settings: 10 ng TNFα/ml
Protocol: For two days, the cells were allowed grow to reach confluence. […] (3) 0.5 μM dexamethasone and (4) 10 μg/ml insulin (MDI medium). […] Adiponectin Assay—The adiponectin secreted into the medium was quantified using the Mouse Adiponectin Quantikine® Immunoassay kit with no modifications (R&D Systems, Minneapolis, Minn.). […] Statistical Calculations and Interpretation—All assays were preformed in duplicate. […] Differences among the doses and test agents were determined using the Student's t-test without correction for multiple comparisons; the nominal five percent probability of a type I error was selected.

[6] = test system: db/db mice; assay: Non-fasting serum glucose and insulin in db/db diabetic mice; format: in vivo, mouse; settings: three daily doses
Protocol: The Model—Male, C57BLKS/J m^+/m^+Lepr^db (db/db) mice were used to assess the potential of the test materials to reduce fasting serum glucose or insulin concentrations. This strain of mice is resistant to leptin by virtue of the absence of a functioning leptin receptor.
Testing Procedure—Test substances were administered daily by gavage in 0.2% Tween-80. Serum was collected from the retroorbital sinus before the initial dose and ninety minutes after the third and final dose. Non-fasting serum glucose was determined enzymatically by the mutarotase/glucose oxidase method and serum insulin was determined by a mouse specific ELISA.
The Model—Male, C57BLKS/J m+/m+Leprdb (db/db) mice were used to assess the potential of the test materials to reduce fasting serum glucose or insulin concentrations. This strain of mice is resistant to leptin by virtue of the absence of a functioning leptin receptor.
Testing Procedure—Test substances were administered daily by gavage in 0.2% Tween-80. […] Non-fasting serum glucose was determined enzymatically by the mutarotase/glucose oxidase method and serum insulin was determined by a mouse specific ELISA.

[7] = test system: DBA/J mice; assay: Collagen induced rheumatoid arthritis murine model (arthritic index, histology, serum IL-6); format: in vivo, mouse; settings: 10 mg/kg
[8] = test system: insulin-resistant 3T3-L1 adipocytes; assay: IL-6 secretion from insulin-resistant 3T3-L1 adipocytes; format: cell-based, murine
Protocol: Statistical Calculations and Interpretation—All assays were preformed in duplicate. For statistical analysis, the effect of hops derivatives on adiponectin or IL-6 secretion was computed relative to the solvent control. Differences among the doses were determined using analysis of variance without correction for multiple comparisons; the nominal five percent probability of a type I error was selected.

[9] = test system: A549 pulmonary epithelial cells; assay: PGE2 biosynthesis in A549 cells stimulated by mite dust allergen; format: cell-based, human; settings: 10 μg/ml
Protocol: The filtrate was termed mite dust allergen and used to test for induction of PGE2 biosynthesis in A549 pulmonary epithelial cells.
Mite allergen was added to the culture medium to achieve a final concentration of 1000 ng/ml. Eighteen hours later, the media were sampled for PGE2 determination.

## CC(=O)Oc1ccccc1C(=O)O [Aspirin]
[1]; LPS 100 ng/ml
  adiponectin secretion: failed to induce adiponectin secretion

## CC(C)CCC1=C(O)C(C(=O)C(C)C)=C(O)C(CCC(C)C)(CCC(C)C)C1=O [Hexahydro colupulone]
[2]
  lipogenic/adipogenic response: failed to elicit a lipogenic response

## CC(C)CCC1=C(O)C(C(=O)C(C)C)=C(O)C(CCC(C)C)(CCC(C)C)C1=O [Hexahydrocolupulone (HHCL)]
[3]
  Adiponectin/IL-6: 0.60#

## COc1ccc2c(c1)c(CC(=O)O)c(C)n2C(=O)c1ccc(Cl)cc1 [Indomethacin]
[2]
  lipogenic/adipogenic response: induced lipogenesis to a similar extent
[4]
  % Inhibition of IL-6 secretion (maximum): 53* %
[1]; LPS 100 ng/ml, […]
  stimulation of adiponectin secretion: 9%
[1]
  % Stimulation of adiponectin secretion (maximum): 9%

## CCc1ccc(CCOc2ccc(CC3SC(=O)NC3=O)cc2)nc1 (stereo not shown) [Pioglitazone]
[5]
  maximum increase of adiponectin secretion over TNFα control: 80%
[5]; Test/TNFα control
  Adiponectin Index (maximum): 1.47
[4]
  IL-6 Index: 0.37*
[1]
  % Stimulation of adiponectin secretion (maximum): 12%

## Cc1c(C)c2c(c(C)c1O)CCC(C)(COc1ccc(CC3SC(=O)NC3=O)cc1)O2 (stereo not shown) [Troglitazone]
[5]
  maximum increase of adiponectin secretion over TNFα control: 51%
[1]
  % Stimulation of adiponectin secretion (maximum): 15%

## CN(C)C(=N)N=C(N)N [metformin]
[6]
  serum glucose relative to the controls: decreased
  serum insulin relative to the controls: decreased

## C[C@]12C=CC(=O)C=C1CC[C@@H]1[C@@H]2[C@@H](O)C[C@@]2(C)[C@H]1CC[C@]2(O)C(=O)CO [prednisolone]
[7]
  reduction of serum IL-6 levels: reached a statistical significance

## O=C(O)c1ccccc1O [salicylic acid]
[4]
  IL-6 Index: 0.52*
[1]; LPS 100 ng/ml
  adiponectin secretion: failed to induce adiponectin secretion

## COc1cc(O)c(CC=C(C)C)c(O)c1C(=O)/C=C/c1ccc(O)cc1 [xanthohumol]
[2]
  lipogenic/adipogenic response: comparable to indomethacin and troglitazone
[8]
  IL-6 secretion: Significant decreases in IL-6 secretion

## Beta acids
[2]
  lipogenic/adipogenic response: comparable to indomethacin and troglitazone
[9]
  Percent PGE2 Inhibition: 83%
